Results on 7 compounds are retold here after publication PMC8587750, “Structural Optimization and Biological Activity of Pyrazole Derivatives: Virtual Computational Analysis, Recovery Assay and 3D Culture Model as Potential Predictive Tools of Effectiveness against Trypanosoma cruzi” (Molecules, 2021).

Entries after “also recorded” stand apart in the source; their conditions may differ. Like-named read-outs stand apart in the source and are kept apart here.

The test system of data set [1] is trypomastigote forms of T. cruzi. The data set can be described thus: Phenotypic screening against T. cruzi trypomastigotes (Dm28c-Luc, luciferase viability, 24 h). The data set is classed as cell-based, Trypanosoma cruzi. Conditions: for Trypomastigotes SI: CC50 of Vero cells/IC50 of trypomastigote; for IC50 / IC90: Trypanosoma cruzi, Dm28c-Luc, 24 h; for IC50: read-out: Trypanocidal Activity Trypomastigotes IC50; for IC90: read-out: Trypanocidal Activity Trypomastigotes IC90. An excerpt: (§1) T. cruzi Dm28c clone genetically modified to express luciferase, kindly provided by Dr. Cristina Henriques from Oswaldo Cruz Institute–Fiocruz, was used in the drug assays. Trypomastigotes were harvested from T. cruzi-infected Vero cultures supernatants at 4th days post-infection (dpi) and used in the phenotypic screening assay. For intracellular amastigotes assays, Vero cells (2D and 3D cultures) were infected at a ratio of 10:1 parasites/host cells.
The phenotypic compound screening was performed using transgenic T. cruzi parasites expressing the firefly luciferase (Dm28c-Luc). Trypomastigotes (1 × 10^6 parasites/well) were treated for 24 h at 37 °C with the pyrazole derivatives and Bz (0.04–100 μM), followed by incubation with luciferin substrate (300 µg/mL) to determine parasite viability through luciferase activity. The concentration that reduces the number of viable parasites by 50% (IC50) or 90% (IC90) was calculated by linear regression. The luminescent signal was read on a Glomax-Multi Detection plate reader (Promega Corporation, Madison, WI, EUA)). At least three independent assays were performed in duplicate.

Data set [2] concerns intracellular amastigotes of T. cruzi. Description: Activity against intracellular amastigotes in infected Vero cells (Dm28c-Luc, 72 h). The data set is classed as cell-based, Trypanosoma cruzi. Conditions: for IC90: read-out: Trypanocidal Activity Intracellular Amastigotes IC90.
From the text: as §1
The effect of the pyrazole derivatives against intracellular amastigotes was also evaluated after 72 h treatment (37 °C) with compound concentrations ranging from 0.04–100 µM [13]. Parasite viability, measured by luminescent signal, was determined after luciferin (300 µg/mL) addition. IC50 and IC90 values were calculated by linear regression. Selectivity index (SI) was calculated as the ratio of the CC50 to IC50 values. The non-toxic concentration of DMSO (less than 1% v/v) was used in all assays. A minimum of three independent assays was carried out in duplicate.

Data set [3] concerns intracellular parasites in T. cruzi-infected microtissue. The data set can be described thus: 3D-microtissue-based phenotypic screening (T. cruzi-infected Vero spheroids). The data set is classed as cell-based, Trypanosoma cruzi. The settings on record: 72 h treatment; for viability of intracellular parasites in microtissue, luminescence intensity (ALU): Bz 100 µM. The protocol:
Vero cells were seeded at a density of 2 × 10^5 cells/well in a 96-well U-bottom plate previously coated with agarose (1%). The 3D cultures, adapted from, were cultivated for 4 days in RPMI 1640 medium supplemented with 10% FBS and L-glutamine for complete 3D microtissue formation. The 3D culture model was used as a tool to evaluate the effectiveness of promising derivatives in eliminating intracellular parasites in the microtissue.
The 3D-microtissue-based phenotypic screening was performed with the promising pyrazole derivatives. […] At the end of the treatment, the 3D cultures supernatants were removed, and luciferin (300 μg/mL) was added to the spheroids. The luminescent signal was read on the Glomax-Multi Detection reader (Promega Corporation, Madison, WI, USA). Bz (100 µM) and DMSO (≤1%) were used as positive and negative control, respectively. The IC50 value was calculated by linear regression. At least three independent assays were performed in quadruplicate.

For data set [4], the system named is T. cruzi cysteine protease. Description: Cysteine protease activity of trypomastigote total protein extracts (Z-FR-AMC). The data set is classed as biochemical, Trypanosoma cruzi. The settings on record: for maximum inhibition of cysteine protease enzymatic activity: 300 µM, Z-FR-AMC 60 µM, pH 5.0, 37 °C. The protocol:
Total protein extract from trypomastigotes (Dm28c-Luc; 10^8 parasites/mL) were extracted with lysis buffer. Cysteine protease activity of extracts (5 μg) was measured in acetate buffer using fluorogenic peptide substrate (60 μM of 7-Amino-4-Methylcoumarin hydrochloride, CBZ-L-Phenylalanyl-L-Arginine amide (Z-FR-AMC). Total protein extracts were incubated for 45 min at room temperature with the compounds and changes in relative fluorescence units monitored using a SpectraMaxM2e spectrophotometer (Molecular Devices, Sunnyvale, CA, USA) for 1 h with excitation at 370 nm and emission at 460 nm. The inhibition assays were performed by coincubation with different compounds (3g, 3j, and 3m) and concentrations (300–11.11 µM) and transepoxysuccinyl-L-leucylamido-(4-guanidino) butane (E-64). Additional control was carried out with DMSO (≤1%). Enzymatic activity was expressed in µmol/min/mg of protein and the residual activity in percentage.
Figure 6 Inhibition of T. cruzi cysteine protease activity. Total protein extracts of trypomastigotes (5 µg), was incubated at different concentrations (300–11.11 µM) of compounds E64 (black circle), 3g (black triangle), 3j (black square) and 3m (white circle) in enzyme activation buffer pH 5.0, at 37 °C. Enzyme activity was measured using a specific fluorogenic peptide substrate Z-FR-AMC (60 µM). Results are presented as percentage of inhibition of enzyme activity (%) and represent the mean and standard deviation (±) of three independent experiments.

A short description of data set [5]: Cytotoxicity in vitro assay (ATP, CellTiter Glo, 72 h). The data set is classed as cell-based. Conditions: African green monkey, Vero cells. The protocol:
Vero cells, obtained from the Rio de Janeiro Cell Bank (BCRJ code 0245), were cultured in RPMI-1640 supplemented with 10% fetal bovine serum (FBS) and 1 mM L-glutamine, as previously described. Vero cells were used for drug screening assays and to obtain trypomastigote forms of T. cruzi.
Vero cells were used as a cellular model to analyze the toxic effect of pyrazole derivatives, series 1(a–l), 2(a–l), 3(a–n), 4(a–c), and 5(a–c), and Benznidazole (Bz) on mammalian cells. Briefly, the cells, plated on 96-well white opaque microplate (1.5 × 10^4 cells/well), were treated for 72 h at 37 °C with a wide range concentration (500–1.95 µM) of the pyrazole derivatives. The cell viability was determined by measuring ATP levels using the CellTiter Glo Kit (Promega Corporation, Madison, WI, EUA) followed by reading the luminescent signal on the Glomax-Multi Detection plate reader (Promega Corporation, Madison, WI, EUA)). All treatments and controls were performed at a low concentration of DMSO (≤1%). The 50% cytotoxic concentration values (CC50; the concentration of the compound that reduces 50% of the cell viability) were estimated by linear regression analysis. Three independent assays were performed in duplicate.

For data set [6], the system named is T. cruzi (Dm28c-Luc) in Vero cells. Description: Reversibility (washout) assay, parasite recrudescence in infected Vero cells. The data set is classed as cell-based, Trypanosoma cruzi. The settings on record: for decrease of parasite load compared to untreated infected Vero cell cultures: 72 h treatment at IC90, washout, 72 h without drug. The protocol:
To address the question of whether the treatment with 3g, 3j, and 3m leads to parasite clearance, an intracellular T. cruzi washout assay was performed as a strategy for monitoring the parasite recrudescence. In this approach, cultures of infected Vero cells (Dm28c-Luc) were treated for 72 h at IC90 and 50 µM (2 to 5-fold de IC90) concentrations of the promising compounds 3g, 3j, and 3m and, after washing the cell monolayers, the cultures were kept for another 72 h without drug treatment. Both cell monolayers and their supernatants were evaluated for the presence of viable parasites after luciferin addition. All derivatives analyzed relapsed at the IC90 concentration (Figure 3). However, treatment with 3g, 3j, and 3m led to a significant reduction in the parasite load, reaching a decrease of 4.5-, 1.9-, and 8.7-fold, respectively, when compared to untreated infected Vero cells cultures (Figure 3). The emergence of trypomastigotes in the supernatant, at IC90 concentration, was observed three days after removal of drug pressure, but with a significant reduction in viable parasites compared to untreated cultures (Figure 3). Parasite recrudescence was not seen in 100 µM Bz treatment (Figure 3).
The washout assay, adapted from, was performed to evaluate the promising compounds efficacy. […] After successive washing, the cultures were maintained for an additional 72 h at 37 °C in RPMI 1640 medium supplemented with 10% SFB in the absence of the compound. Luciferin (300 µg/mL) was added separately to the culture supernatant, previously removed, and the cell monolayer. The luminescent signal was read on the Glomax-Multi Detection reader (Promega Corporation, Madison, WI, USA). Bz (100 µM) and DMSO (≤1%) were used as positive and negative reaction controls, respectively.

Data set [7] has as its system T. cruzi-infected cardiac microtissue. Also on record: method as in PMID 32564978. Conditions: 5 nM; cited from earlier work.
Data set [8] relates to trypomastigote forms of T. cruzi. Further details: method as in PMID 31434040. The settings on record: read-out: IC50 against trypomastigotes; cited from earlier work.
Setting [9] is: Trypanosoma cruzi, Vero, negative log of the IC50 value in molar, read-out: Intracellular Amastigotes pIC50 (converted).
The mark [10] stands for this setting: Trypanosoma cruzi, Vero cells infected with Dm28c-Luc, 72 h.

In the case of `Clc1ccc(-n2cc(C3=NCCN3)cn2)cc1` [Compound 3g, 1-(4-chlorophenyl)-4-(4,5-dihydro-1H-imidazol-2-yl)-1H-pyrazole], the “Trypomastigotes SI” value in data set [1] is listed as 4.27. Further, the IC50 in data set [1] is 64.6 ± 1.56 µM; in data set [2] (Trypanosoma cruzi, Vero, 72 h, Vero cells infected with Dm28c-Luc, 72 h, read-out: Trypanocidal Activity Intracellular Amastigotes IC50), less than 10 µM; in data set [2] (setting [9]) it was 6.03 µM; in data set [2] (Vero cells infected with Dm28c-Luc, 72 h, read-out: Trypanocidal Activity Intracellular Amastigotes IC50), 6.09 ± 0.52 µM. Besides, the IC90 was greater than 100 µM in data set [1] and 26.1 ± 14.3 µM in data set [2] (setting [10]). Moreover, the “viability of intracellular parasites in microtissue, luminescence intensity (ALU)” value (shortened to “viability of intracellular parasites”) in data set [3] was 36,130 ± 5764 ALU. The “maximum inhibition of cysteine protease enzymatic activity” value (from here on “maximum inhibition”) in data set [4] was 26%. In addition, the CC50 at 72 h in data set [5] stood at 277 ± 15.8 µM. The “decrease of parasite load compared to untreated infected Vero cell cultures” value (shortened to “decrease of parasite load”) in data set [6] was 4.5 fold.
With `Brc1ccc(-n2cc(C3=NCCN3)cn2)cc1` [Compound 3j, 1-(4-bromophenyl)-4-(4,5-dihydro-1H-imidazol-2-yl)-1H-pyrazole], in data set [1], the “Trypomastigotes SI” value is listed as 5.36, the IC50 stood at 57.7 ± 3.14 µM and the IC90 is 95.3 ± 5.43 µM. Besides, the IC50 in data set [2] (setting [9]) is 2.75 µM. Besides, in data set [2] (setting [10]), the concentration for an effect of 90% (IC90) was determined as 9.67 ± 0.3 µM. In addition, in data set [3], the “viability of intracellular parasites” value is on record as 39,001 ± 9952 ALU. The “maximum inhibition” value in data set [4] is 26%. This compound also came in with a CC50 at 72 h in data set [5] of 309 ± 34.3 µM. For the same compound, the “decrease of parasite load” value in data set [6] was found to be 1.9 fold.
For `Cc1ccc(-n2cc(C3=NCCN3)cn2)cc1Cl` [Compound 3m, 1-(3-chloro-4-methylphenyl)-4-(4,5-dihydro-1H-imidazol-2-yl)-1H-pyrazole], in data set [1], the “Trypomastigotes SI” value was found to be 4.64, the IC50 was 34.5 ± 8.32 µM and the 90% effect concentration (IC90) was greater than 100 µM. For the same compound, in data set [2] (setting [9]), the IC50 was 3.55 µM. Also, in data set [2] (setting [10]), the IC90 was 21.4 ± 1.25 µM. In addition, the “fold increase of activity against intracellular amastigotes versus hit compound” value in data set [2] (compared to hit compound) is on record as 3.8 fold. In data set [2] (intracellular amastigotes), the “trypanocidal activity fold higher than 3e” value is given as 21 fold. In addition, in data set [3], the “reduction of microtissue infection” value stood at 93% and the “viability of intracellular parasites” value is recorded as 12,683 ± 3976 ALU. The “maximum inhibition” value in data set [4] was 26%. Further, the CC50 at 72 h in data set [5] turned out to be 161 ± 16.1 µM. Moreover, in data set [6] (50 µM (2 times IC90), 72 h after washout), the “parasite recrudescence / efficacy” value is on record as “without parasitism recrudescence; also recorded: same activity profile as 100 µM Bz”. The “decrease of parasite load” value in data set [6] was determined as 8.7 fold.
For `CC[C@@H]([C@H](C)O)n1ncn(-c2ccc(N3CCN(c4ccc(OC[C@@H]5CO[C@@](Cn6cncn6)(c6ccc(F)cc6F)C5)cc4)CC3)cc2)c1=O` [Posaconazole, posaconazole], the “reduction of parasite load” value in data set [7] is 50%.
With “5-amino-1-aryl-4-(4,5-dihydro-1H-imidazol-2-yl)-1H-pyrazole [hit compound]”, the IC50 in data set [8] was 9.5 ± 1.2 µM.
As to `O=C(Cn1ccnc1[N+](=O)[O-])NCc1ccccc1` [Bz, benznidazole, reference compound], the “Trypomastigotes SI” value in data set [1] was greater than 26.7. Besides, the IC50 is 18.7 ± 4.58 µM in data set [1]; 4.68 µM in data set [2] (setting [9]); 4.67 ± 0.22 µM in data set [2] (Trypanosoma cruzi, Vero cells infected with Dm28c-Luc, 72 h, read-out: Trypanocidal Activity Intracellular Amastigotes IC50). The IC90 in data set [1] and in data set [2] (setting [10]) was greater than 100 µM each time. The “Intracellular Amastigotes SI” value in data set [2] (CC50 of Vero cells/IC50 of intracellular amastigote) is listed as greater than 107. In data set [3], the “viability of intracellular parasites” value was 18,858 ± 3726 ALU. The CC50 at 72 h in data set [5] is greater than 500 µM. The parasite recrudescence result in data set [6] (100 µM, 72 h after washout) is recorded as “not seen”.
As to `CC(C)C[C@H](NC(=O)[C@H]1O[C@@H]1C(=O)O)C(=O)NCCCCN=C(N)N` [Compound E-64, transepoxysuccinyl-L-leucylamido-(4-guanidino) butane, reference compound], the “inhibition of cysteine protease enzymatic activity” value in data set [4] (concentrations ≥ 11.11 µM) is given as “greater than 80%”.
